Compound	melting point [°C]
COc1ccc(-c2[nH]nc3c2C(=O)c2c(NC(=O)Cc4ccc(N=[N+]=[N-])cc4)cccc2-3)cc1 [Example XL, 3-(4-methoxyphenyl)-5-((4-azidophenyl)acetamido)indeno[1,2-c]pyrazol-4-one]	> 300
COc1ccc(-c2[nH]nc3c2C(=O)c2c(NC(=O)Cc4ccc(N)cc4)cccc2-3)cc1 [Example XLI, 3-(4-methoxyphenyl)-5-((4-aminophenyl)acetamido)indeno[1,2-c]pyrazol-4-one]	283
COc1ccc(-c2[nH]nc3c2C(=O)c2c(NC(=O)Nc4ccccc4)cccc2-3)cc1 [Example XLII, 3-(4-methoxyphenyl)-5-((phenylcarbamoyl)amino)indeno [1,2-c]pyrazol-4-one]	> 300
CC(=O)Nc1cccc2c1C(=O)c1c-2n[nH]c1-c1ccncc1 [Example XLIX, 3-(4-pyridyl)-5-(acetamido)indeno [1,2-c]pyrazol-4-one]	> 300
CC(=O)Nc1cccc2c1C(=O)c1c-2n[nH]c1-c1ccc(O)cc1 [Example XLVI, 3-(4-hydroxyphenyl)-5-(acetamido)indeno[1,2-c]pyrazol-4-one]	> 300
COc1ccc(-c2[nH]nc3c2C(=O)c2c(NC=O)cccc2-3)cc1 [Example XLVII, 3-(4-methoxyphenyl)-5-(formamido)indeno[1,2-c]pyrazol-4-one]	280
CC(=O)Nc1cccc2c1C(=O)c1c-2n[nH]c1-c1cccnc1 [Example XLVIII, 3-(3-pyridyl)-5-(acetamido)indeno [1,2-c]pyrazol-4-one]	> 300
COc1ccccc1-c1[nH]nc2c1C(=O)c1c(NC(C)=O)cccc1-2 [Example XV, 3-(2-methoxyphenyl)-5-(acetamido)indeno[1,2-c]pyrazol-4-one]	276
COc1ccc(-c2[nH]nc3c2C(=O)c2c(NC(C)=O)cccc2-3)cc1OC [Example XVI, 3-(3,4-dimethoxyphenyl)-5-(acetamido)indeno[1,2-c]pyrazol-4-one]	> 300
COc1ccc(-c2[nH]nc3c2C(=O)c2c(NC(=O)Cc4ccccc4Cl)cccc2-3)cc1 [Example XXII, 3-(4-methoxyphenyl)-5-((2-chlorophenyl)acetamido)indeno[1,2-c]pyrazol-4-one]	300
COc1ccc(-c2[nH]nc3c2C(=O)c2c(NC(=O)CN)cccc2-3)cc1 [Example XXIII, 3-(4-methoxyphenyl)-5-(aminoacetamido)indeno[1,2-c]pyrazol-4-one]	> 300
COc1ccc(-c2[nH]nc3c2C(=O)c2c(NC(=O)CNCCO)cccc2-3)cc1 [Example XXIV, 3-(4-methoxyphenyl)-5-((2-hydroxyethyl)aminoacetamido)indeno[1,2-c]pyrazol-4-one]	243
COc1ccc(-c2[nH]nc3c2C(=O)c2c(NC(=O)CN4CCCCC4)cccc2-3)cc1 [Example XXIX, 3-(4-methoxyphenyl)-5-(piperidinoacetamido)indeno[1,2-c]pyrazol-4-one]	291
COc1ccc(-c2[nH]nc3c2C(=O)c2c(NC(=O)CN4CCNCC4)cccc2-3)cc1 [Example XXVI, 3-(4-methoxyphenyl)-5-(piperazinoacetamido)indeno[1,2-c]pyrazol-4-one]	277
COc1ccc(-c2[nH]nc3c2C(=O)c2c(NC(=O)CN4CCN(C)CC4)cccc2-3)cc1 [Example XXVII, 3-(4-methoxyphenyl)-5-(4-methylpiperazinoacetamido)indeno[1,2-c]pyrazol-4-one]	> 300
COc1ccc(-c2[nH]nc3c2C(=O)c2c(NC(=O)CN4CCN(CCO)CC4)cccc2-3)cc1 [Example XXVIII, 3-(4-methoxyphenyl)-5-(4-(2-hydroxyethyl)piperazinoacetamido)indeno[1,2-c]pyrazol-4-one]	> 300
COc1ccc(-c2[nH]nc3c2C(=O)c2c(NC(=O)CN4CCC(CN)CC4)cccc2-3)cc1 [Example XXX, 3-(4-methoxyphenyl)-5-(4-(aminomethyl)piperidinoacetamido)indeno[1,2-c]pyrazol-4-one]	> 300
CCNCC(=O)Nc1cccc2c1C(=O)c1c-2n[nH]c1-c1ccc(OC)cc1 [Example XXXI, 3-(4-methoxyphenyl)-5-(ethylaminoacetamido)indeno[1,2-c]pyrazol-4-one]	250
COc1ccc(-c2[nH]nc3c2C(=O)c2c(NC(=O)CN4CCSCC4)cccc2-3)cc1 [Example XXXII, 3-(4-methoxyphenyl)-5-(thiomorpholinoacetamido)indeno[1,2-c]pyrazol-4-one]	298
COc1ccc(-c2[nH]nc3c2C(=O)c2c(NC(=O)CN4CCOCC4)cccc2-3)cc1 [Example XXXIII, 3-(4-methoxyphenyl)-5-(morpholinoacetamido)indeno[1,2-c]pyrazol-4-one]	295
COc1ccc(-c2[nH]nc3c2C(=O)c2c(NC(=O)CN4CCCC4)cccc2-3)cc1 [Example XXXIV, 3-(4-methoxyphenyl)-5-(pyrrolidinoacetamido)indeno[1,2-c]pyrazol-4-one]	279
COc1ccc(-c2[nH]nc3c2C(=O)c2c(NC(=O)Cc4ccc(NC(=O)CN(C)C)cc4)cccc2-3)cc1 [Example XXXIX, 3-(4-methoxyphenyl)-5-((4-((N,N-dimethylamino)methylcarbonylamino)phenyl)acetamido) indeno[1,2-c]pyrazol-4-one]	> 300
COc1ccc(-c2[nH]nc3c2C(=O)c2c(NC(=O)Cc4ccc(NC(C)=O)cc4)cccc2-3)cc1 [Example XXXVI, 3-(4-methoxyphenyl)-5-((4-acetamidophenyl)acetamido)indeno[1,2-c]pyrazol-4-one]	268
COC(=O)Nc1ccc(CC(=O)Nc2cccc3c2C(=O)c2c-3n[nH]c2-c2ccc(OC)cc2)cc1 [Example XXXVII, 3-(4-methoxyphenyl)-5-((4-(methoxycarbonylamino)phenyl)acetamido) indeno[1,2-c]pyrazol-4-one]	257
COc1ccc(-c2[nH]nc3c2C(=O)c2c(NC(=O)Cc4ccc(NC(=O)CN)cc4)cccc2-3)cc1 [Example XXXVIII, 3-(4-methoxyphenyl)-5-((4-(aminomethylcarbonylamino)phenyl)acetamido) indeno[1,2-c]pyrazol-4-one]	228

From patent US6407103B2, “Indeno [1,2-c] pyrazol-4-ones and their uses” (Bristol-Myers Squibb Pharma Company, priority 1998, dated 2002)
